What was measured:
Assay in all cases: relative viability (nuclei count vs DMSO), 5 days (fraction); higher = more cells survive
Vorinostat + Pemetrexed = compound: O=C(CCCCCCC(=O)Nc1ccccc1)NO [Vorinostat] + Nc1nc2[nH]cc(CCc3ccc(C(=O)N[C@@H](CCC(=O)O)C(=O)O)cc3)c2c(=O)[nH]1 [Pemetrexed] (partner 0.2 µM)
Method in brief: (§1)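 Dosing by pin tool came one day after lung cancer cell lines were seeded in 1536-well plates, using either one drug or a fixed anchor-drug dose plus five library-drug doses (not always all listed) in √10 steps. After 5 days, nuclei were counted on 4× images. Relative viability is treated-well nuclei count divided by vehicle-well nuclei count, and values are medians of duplicate plates.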

Vorinostat + Phenformin = compound: O=C(CCCCCCC(=O)Nc1ccccc1)NO [Vorinostat] + N=C(N)NC(=N)NCCc1ccccc1 [Phenformin] (partner 250 µM)
Method in brief: as §1

Vorinostat + Trametinib = compound: O=C(CCCCCCC(=O)Nc1ccccc1)NO [Vorinostat] + CC(=O)Nc1cccc(-n2c(=O)n(C3CC3)c(=O)c3c(Nc4ccc(I)cc4F)n(C)c(=O)c(C)c32)c1 [Trametinib] (partner 0.02 µM)
Method in brief: as §1

Vorinostat + Pictilisib = compound: O=C(CCCCCCC(=O)Nc1ccccc1)NO [Vorinostat] + CS(=O)(=O)N1CCN(Cc2cc3nc(-c4cccc5[nH]ncc45)nc(N4CCOCC4)c3s2)CC1 [Pictilisib] (partner 1 µM)
Method in brief: as §1

Vorinostat + AZD7762 = compound: O=C(CCCCCCC(=O)Nc1ccccc1)NO [Vorinostat] + NC(=O)Nc1cc(-c2cccc(F)c2)sc1C(=O)N[C@H]1CCCNC1 [AZD7762] (partner 0.2 µM)
Method in brief: as §1

| Cell Line | relative viability (Vorinostat + Pemetrexed; first compound 0.253 µM) | relative viability (Vorinostat + Pemetrexed; first compound 0.8 µM) | relative viability (Vorinostat + Pemetrexed; first compound 2.53 µM) | relative viability (Vorinostat + Pemetrexed; first compound 8 µM) | relative viability (Vorinostat + Phenformin; first compound 0.253 µM) | relative viability (Vorinostat + Phenformin; first compound 0.8 µM) | relative viability (Vorinostat + Phenformin; first compound 2.53 µM) | relative viability (Vorinostat + Phenformin; first compound 8 µM) | relative viability (Vorinostat + Trametinib; first compound 0.253 µM) | relative viability (Vorinostat + Trametinib; first compound 0.8 µM) | relative viability (Vorinostat + Trametinib; first compound 2.53 µM) | relative viability (Vorinostat + Trametinib; first compound 8 µM) | relative viability (Vorinostat + Pictilisib; first compound 0.253 µM) | relative viability (Vorinostat + Pictilisib; first compound 0.8 µM) | relative viability (Vorinostat + Pictilisib; first compound 2.53 µM) | relative viability (Vorinostat + Pictilisib; first compound 8 µM) | relative viability (Vorinostat + AZD7762; first compound 0.253 µM) | relative viability (Vorinostat + AZD7762; first compound 0.8 µM) | relative viability (Vorinostat + AZD7762; first compound 2.53 µM) | relative viability (Vorinostat + AZD7762; first compound 8 µM) |
| --- | --- | --- | --- | --- | --- | --- | --- | --- | --- | --- | --- | --- | --- | --- | --- | --- | --- | --- | --- | --- |
| NCI-H2085 | 1.02 | 0.738 | 0.45 | 0.18 | 0.781 | 0.532 | 0.46 | 0.223 | 0.587 | 0.503 | 0.285 | 0.155 | 0.53 | 0.462 | 0.378 | 0.303 | 0.962 | 0.898 | 0.518 | 0.207 |
| H3255 | 0.656 | 0.573 | 0.56 | 0.289 | 0.33 | 0.302 | 0.323 | 0.262 | 0.819 | 0.709 | 0.576 | 0.227 | 0.599 | 0.574 | 0.318 | 0.183 | 0.989 | 0.923 | 0.507 | 0.279 |
| A-427 | 1.02 | 0.925 | 0.433 | 0.196 | 0.389 | 0.396 | 0.229 | 0.139 | 0.82 | 0.718 | 0.361 | 0.166 | 0.65 | 0.595 | 0.586 | 0.153 | 0.67 | 0.459 | 0.239 | 0.156 |
| NCI-H1944 | 0.585 | 0.448 | 0.311 | 0.135 | 0.203 | 0.19 | 0.146 | 0.123 | 0.481 | 0.424 | 0.292 | 0.0999 | 0.338 | 0.308 | 0.27 | 0.18 | 0.328 | 0.27 | 0.19 | 0.104 |
| NCI-H358 | 0.155 | 0.155 | 0.152 | 0.0859 | 0.5 | 0.47 | 0.115 | 0.082 | 0.171 | 0.149 | 0.0954 | 0.0859 | 0.372 | 0.468 | 0.17 | 0.172 | 0.466 | 0.312 | 0.14 | 0.159 |

From the supplement of paper PMC10307832
